# Key:
# [1] = molecular target: T1, human sphingosine-1-phosphate receptor 1 (S1P1) (Homo sapiens (Human), UniProt P21453); assay: Inhibition of cAMP production (HTRF cAMP HiRange), S1P1 CHO-K1 cells; format: cell-based; conditions: for hS1P1 cAMP pEC50: inhibition of cAMP production, S1P1 CHO-K1 cells; for Emax: CHO-K1, read-out: hS1P1 cAMP SPAN
# Summary of the method: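 CHO-K1 cells stably co-expressing human S1P1 (C-terminal Prolink tag) and EA-β-arrestin2 were grown in AssayComplete Media 6 at 37° C. and 5% CO2, plated, and incubated overnight. Agonist-driven inhibition of intracellular cAMP was read by TR-FRET with the HTRF cAMP HiRange kit on a PheraStar reader. Potency is pEC50, and efficacy (SPAN) is normalized to fingolimod.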
# Target sequence in this assay (P21453 whole entry, looked up): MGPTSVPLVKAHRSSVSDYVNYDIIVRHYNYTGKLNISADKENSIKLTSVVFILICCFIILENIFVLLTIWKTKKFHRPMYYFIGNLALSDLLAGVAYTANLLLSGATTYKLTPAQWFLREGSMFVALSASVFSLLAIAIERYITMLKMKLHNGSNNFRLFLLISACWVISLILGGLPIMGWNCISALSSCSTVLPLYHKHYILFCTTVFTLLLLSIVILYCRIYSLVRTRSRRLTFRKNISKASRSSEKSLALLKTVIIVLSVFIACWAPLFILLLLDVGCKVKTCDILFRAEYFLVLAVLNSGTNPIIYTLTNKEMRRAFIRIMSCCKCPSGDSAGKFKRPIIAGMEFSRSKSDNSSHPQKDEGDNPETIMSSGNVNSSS
# [2] = molecular target: T1, human sphingosine-1-phosphate receptor 1 (S1P1); assay: β-Arrestin2 recruitment assay (PathHunter), S1P1 CHO-K1 cells; format: cell-based; conditions: for hS1P1 B-arrestin2 pEC50: β-arrestin2 recruitment, S1P1 CHO-K1 cells; for Emax: CHO-K1, read-out: hS1P1 B-arrestin2 SPAN
# Summary of the method: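 Enzyme-fragment complementation read-out: agonist-driven β-arrestin2 binding to ProLink-tagged human S1P1 in stable CHO-K1 cells restores β-galactosidase, measured 1 h at room temperature after a 60 min 37° C. compound incubation. Potency as pEC50, efficacy relative to fingolimod (SPAN).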
# Target sequence in this assay (P21453 whole entry, looked up): as above
# Target sequence in this assay (P32121 whole entry partner, looked up): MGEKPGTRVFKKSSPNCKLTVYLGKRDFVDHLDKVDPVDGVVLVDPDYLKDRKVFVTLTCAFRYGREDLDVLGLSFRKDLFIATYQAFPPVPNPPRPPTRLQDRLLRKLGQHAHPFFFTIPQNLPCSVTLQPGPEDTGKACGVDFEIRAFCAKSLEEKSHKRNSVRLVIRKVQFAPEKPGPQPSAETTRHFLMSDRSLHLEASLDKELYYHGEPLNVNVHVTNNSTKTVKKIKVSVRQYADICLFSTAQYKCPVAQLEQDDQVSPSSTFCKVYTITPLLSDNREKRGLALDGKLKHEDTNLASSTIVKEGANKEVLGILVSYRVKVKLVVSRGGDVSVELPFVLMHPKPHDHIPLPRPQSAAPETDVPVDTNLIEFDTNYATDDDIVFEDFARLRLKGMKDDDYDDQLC
# [3] = efficacy (SPAN) normalized to fingolimod
Molecule,hS1P1 cAMP pEC50 [1],hS1P1 B-arrestin2 pEC50 [2],"Emax [1, 3] [%]","Emax [2, 3] [%]","hS1P1 cAMP SPAN [1, 3]","hS1P1 B-arrestin2 SPAN [2, 3]"
"Cc1ccncc1-c1noc(-c2ccc3c(c2)NC(=O)CN3)n1 [Compound 613, 7-[3-(4-methylpyridin-3-yl)-1,2,4-oxadiazol-5-yl]-1,2,3,4-tetrahydroquinoxalin-2-one]",<6.5,<5,–,–,–,–
"CCC1(CC)CC(=O)c2cc(-c3nc(-c4cncnc4)no3)ccc2O1 [Compound 620, 2,2-diethyl-6-(3-(pyrimidin-5-yl)-1,2,4-oxadiazol-5-yl)chroman-4-one]",>6.5,>5,–,–,–,–
"CC(C)n1ccc2cc(-c3noc(-c4ccncc4)n3)ccc21 [Compound 395, 3-(1-isopropyl-1H-indol-5-yl)-5-(pyridin-4-yl)-1,2,4-oxadiazole]",>6.5,>5,–,–,–,–
"CC(C)n1ccc2cc(-c3nc(-c4ccccc4F)ns3)ccc21 [Compound 374, 5-[3-(2-fluorophenyl)-1,2,4-thiadiazol-5-yl]-1-(propan-2-yl)-1H-indole]",<6.5,<5,–,–,–,–
"Cc1ccc(-c2nc(-c3ccc4c(c3)nnn4C3CCCC3)no2)cc1 [Compound 235, 3-(1-cyclopentyl-1H-benzo[d][1,2,3]triazol-5-yl)-5-(p-tolyl)-1,2,4-oxadiazole]",<6.5,<5,–,–,–,–
"CCC1(CC)CC(=O)c2cc(-c3nc(-c4ccco4)no3)ccc2O1 [Compound 465, 2,2-diethyl-6-(3-(furan-2-yl)-1,2,4-oxadiazol-5-yl)chroman-4-one]",>6.5,>5,–,–,–,–
"Cc1ccccc1-c1nc(-c2ccc3c(c2)nnn3CC(C)(C)CO)no1 [Compound 505, 2,2-dimethyl-3-(5-(5-(o-tolyl)-1,2,4-oxadiazol-3-yl)-1H-benzo[d][1,2,3]triazol-1-yl)propan-1-ol]",<6.5,<5,–,–,–,–
"Brc1ccccc1-c1noc(-c2ccc3[nH]nnc3c2)n1 [Compound 190, 5-[3-(2-bromophenyl)-1,2,4-oxadiazol-5-yl]-1H-1,2,3-benzotriazole]",<6.5,<5,< 75,< 75,–,–
"CC(C)n1nnc2cc(-c3nc(-c4ccccc4O)no3)ccc21 [Compound 180, 2-(5-(1-isopropyl-1H-benzo[d][1,2,3]triazol-5-yl)-1,2,4-oxadiazol-3-yl)phenol]",<6.5,<5,–,–,–,–
"Cc1ccccc1-c1noc(-c2ccc3c(c2)nnn3CC2CC2)n1 [Compound 288, 1-(cyclopropylmethyl)-5-[3-(2-methylphenyl)-1,2,4-oxadiazol-5-yl]-1H-1,2,3-benzotriazole]",<6.5,<5,< 75,< 75,–,–
"CC(C)n1ccc2cc(-c3nc(-c4ccccc4C(F)(F)F)cs3)cnc21 [Compound 408, 2-(1-isopropylpyrrolo[2,3-b]pyridin-5-yl)-4-[2-(trifluoromethyl)phenyl]thiazole]",<6.5,<5,–,–,–,–
"O=C1c2cc(-c3nc(-c4ccncc4)no3)ccc2OC(CO)(CO)C1Br (stereo not shown) [Compound 483, 3-bromo-2,2-bis(hydroxymethyl)-6-[3-(pyridin-4-yl)-1,2,4-oxadiazol-5-yl]-3,4-dihydro-2H-1-benzopyran-4-one]",<6.5,<5,–,–,–,–
"COc1cccc(-c2csc(-c3ccc4c(ccn4C(C)C)c3)n2)c1 [Compound 405, 2-(1-isopropylindol-5-yl)-4-(3-methoxyphenyl)thiazole]",<6.5,<5,–,–,–,–
"c1ccc(-c2noc(-c3ccc4c(c3)nnn4C3CCCC3)n2)cc1 [Compound 7, 1-cyclopentyl-5-(3-phenyl-1,2,4-oxadiazol-5-yl)-1H-1,2,3-benzotriazole]",<6.5,<5,–,–,–,–
"CCC1(CC)C/C(=N/O)c2cc(-c3nc(-c4cccnc4)no3)ccc2O1 [Compound 430, N-[(4Z)-2,2-diethyl-6-[3-(pyridin-3-yl)-1,2,4-oxadiazol-5-yl]-3,4-dihydro-2H-1-benzopyran-4-ylidene]hydroxylamine]",<6.5,<5,–,–,–,–
"COc1cccc2nc(-c3ccc4c(c3)nnn4C(C)C)oc12 [Compound 515, 2-(1-isopropyl-1H-benzo[d][1,2,3]triazol-5-yl)-7-methoxybenzo[d]oxazole]",>6.5,>5,> 75,> 75,–,–
"Cc1ccc(-c2noc(-c3ccc4c(c3)nnn4C3CCCCC3)n2)cc1 [Compound 117, 1-cyclohexyl-5-[3-(4-methylphenyl)-1,2,4-oxadiazol-5-yl]-1H-1,2,3-benzotriazole]",<6.5,<5,< 75,< 75,–,–
"2-(5-(5-(2- chlorophenyl)-1,2,4- oxadiazol-3-yl)-1H- benzo[d][1,2,3]triazol- 1-yl)-2-methylpropan- 1-ol [Compound 618]",<6.5,>5,–,–,<75,<75
"Cc1cc(-c2nc(-c3ccc4c(c3)nnn4C(C)C)no2)cnc1C [Compound 201, 5-(5,6-dimethylpyridin-3-yl)-3-(1-isopropyl-1H-benzo[d][1,2,3]triazol-5-yl)-1,2,4-oxadiazole]",<6.5,<5,–,–,–,–
"CC(C)n1nnc2cc(-c3ncc(-c4ccccc4Br)s3)ccc21 [Compound 220, 5-(2-bromophenyl)-2-(1-isopropylbenzotriazol-5-yl)thiazole]",<6.5,<5,–,–,–,–
"COc1ccccc1-c1noc(-c2ccc3c(c2)nnn3C2CCOCC2)n1 [Compound 231, 5-[3-(2-methoxyphenyl)-1,2,4-oxadiazol-5-yl]-1-(oxan-4-yl)-1H-1,2,3-benzotriazole]",<6.5,<5,< 75,< 75,–,–
"CC(C)Nc1ccc(-c2nnc(-c3ccc4c(c3)CCC(=O)N4)o2)cc1C#N [Compound 473, 5-[5-(2-oxo-1,2,3,4-tetrahydroquinolin-6-yl)-1,3,4-oxadiazol-2-yl]-2-[(propan-2-yl)amino]benzonitrile]",>6.5,>5,–,–,–,–

# Now from value to molecule:
hS1P1 cAMP pEC50 [1],hS1P1 B-arrestin2 pEC50 [2],"Emax [1, 3] [%]","Emax [2, 3] [%]","hS1P1 cAMP SPAN [1, 3]","hS1P1 B-arrestin2 SPAN [2, 3]",Molecule
>6.5,>5,> 75,> 75,–,–,"COc1ccncc1-c1nc(-c2ccc3c(c2)nnn3C(C)C)no1 [Compound 605, 3-(1-isopropyl-1H-benzo[d][1,2,3]triazol-5-yl)-5-(4-methoxypyridin-3-yl)-1,2,4-oxadiazole]"
>6.5,>5,–,–,–,–,"CCC1(CC)CC(=O)c2cc(-c3nc(-c4cncc(S(N)(=O)=O)c4)no3)ccc2O1 [Compound 603, 5-(5-(2,2-diethyl-4-oxochroman-6-yl)-1,2,4-oxadiazol-3-yl)pyridine-3-sulfonamide]"
>6.5,>5,< 75,< 75,–,–,"CC(C)Oc1ccc(-c2ccc(-c3ccc4c(c3)nnn4C(C)C)cc2)cc1C#N [Compound 506, 4-isopropoxy-4′-(1-isopropyl-1H-benzo[d][1,2,3]triazol-5-yl)-[1,1′-biphenyl]-3-carbonitrile]"
<6.5,<5,< 75,< 75,–,–,"CC(C)n1ccc2cc(-c3nc(-c4ccccc4F)cs3)ccc21 [Compound 403, 4-(2-fluorophenyl)-2-(1-isopropylindol-5-yl)thiazole]"
<6.5,>5,–,–,–,–,"Cc1ccccc1-c1nsc(-c2ccc3c(ccn3C(C)C)c2)n1 [Compound 381, 5-[3-(2-methylphenyl)-1,2,4-thiadiazol-5-yl]-1-(propan-2-yl)-1H-indole]"
<6.5,>5,–,–,–,–,"CC(C)n1ccc2cc(-c3noc(-c4cccc(F)c4)n3)ccc21 [Compound 394, 5-(3-fluorophenyl)-3-(1-isopropyl-1H-indol-5-yl)-1,2,4-oxadiazole]"
<6.5,<5,–,–,–,–,"CC(C)c1ccc(-c2nc(-c3ccc4c(c3)nnn4C(C)C)no2)cn1 [Compound 25, 3-(1-isopropyl-1H-benzo[d][1,2,3]triazol-5-yl)-5-(6-isopropylpyridin-3-yl)-1,2,4-oxadiazole]"
<6.5,<5,–,–,–,–,"Cn1cnc2cc(-c3nnc(-c4ccc(NCC(F)F)c(C#N)c4)o3)ccc21 [Compound 573, 2-[(2,2-difluoroethyl)amino]-5-[5-(1-methyl-1H-1,3-benzodiazol-5-yl)-1,3,4-oxadiazol-2-yl]benzonitrile]"
>6.5,>5,–,–,–,–,"CC(C)n1nnc2cc(-c3nsc(-c4ccccc4O)n3)ccc21 [Compound 112, 2-{3-[1-(propan-2-yl)-1H-1,2,3-benzotriazol-5-yl]-1,2,4-thiadiazol-5-yl}phenol]"
>6.5,<5,–,–,–,–,"CC(C)n1ccc2cc(-c3nc(-c4ccccc4F)cs3)cnc21 [Compound 402, 4-(2-fluorophenyl)-2-(1-isopropyl-1H-pyrrolo[2,3-b]pyridin-5-yl)thiazole]"

# — patent US11912693B2, “Compounds for modulating S1P1 activity and methods of using the same” (TREVENA, INC., priority 2017, dated 2024)
